Literature values, collected in US12115220B2, “Oral mucosal carrier and protectant” (Inspired Material Solutions, LLC, priority 2018, dated 2024).
Read-outs that look alike come from different tables or passages of the source.

[1] = 10 mg CBD+10 mg THC in an oral capsule
[2] = after buccal Sativex (10 mg THC+10 mg CBD)

Compound	mean (SD) peak plasma concentration [1]	mean (SD) peak plasma concentration [2]	Time to maximum concentration (Tmax) (after buccal administration)	Time to maximum concentration (Tmax) (after oral administration)	plasma maximum concentrations (after a 20 mg dose of oral THC)	bioavailability (inhaled)	time of peak concentrations postdose (oral absorption)
C=C(C)[C@@H]1CCC(C)=C[C@H]1c1c(O)cc(CCCCC)cc1O [CBD, cannabidiol]	2.5 (2.2) μg/L	3.0 (3.1) μg/L	2.8 (1.3) h	1.3 (0.8) h	–	–	–
CCCCCc1cc(O)c2c(c1)OC(C)(C)[C@@H]1CCC(C)=C[C@@H]21 [THC, delta-9-tetrahydrocannabinol]	6.4 (3.1) μg/L	6.1 (5.4) μg/L	2.4 (1.1) h	1.0 (0.6) h	4.4 to 11.0 µg/L	up to 27%	1 to 5 h
